Measured values published in US7906156B2, “CB2 receptors blocks accumulation of human hepatic myofibroblasts: a novel antifibrogenic pathway in the liver” (priority 2003, dated 2011).
Counter-ions that a name gives are not always drawn. Residues, ends and D or L forms follow the SMILES beside them. *: point of attachment. Cbz = O=C(OCc1ccccc1)*; CH2F = FC*

Columns and labels:
CB1 receptors = target: T1, CB1 receptors (Homo sapiens, UniProt P21554); format: cell-based
T1 construct: host or cells: CHO cells
T1 sequence (P21554 whole entry): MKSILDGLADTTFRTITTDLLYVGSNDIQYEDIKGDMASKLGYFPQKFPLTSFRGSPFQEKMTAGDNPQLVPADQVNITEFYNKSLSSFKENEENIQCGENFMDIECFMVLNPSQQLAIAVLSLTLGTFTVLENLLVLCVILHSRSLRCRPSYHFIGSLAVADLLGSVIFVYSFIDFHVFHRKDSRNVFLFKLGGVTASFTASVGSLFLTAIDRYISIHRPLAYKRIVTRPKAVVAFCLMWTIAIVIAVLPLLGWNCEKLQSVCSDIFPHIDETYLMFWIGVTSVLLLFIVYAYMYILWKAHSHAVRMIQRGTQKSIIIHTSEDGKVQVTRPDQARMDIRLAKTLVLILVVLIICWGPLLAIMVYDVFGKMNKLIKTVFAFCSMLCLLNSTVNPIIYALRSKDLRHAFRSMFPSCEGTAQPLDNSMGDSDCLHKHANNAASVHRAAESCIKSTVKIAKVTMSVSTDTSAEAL

CB2 receptors [1] = target: T2, CB2 receptors (Homo sapiens, UniProt P34972); test: forskolin-stimulated cAMP levels in CHO overexpressing CB2 receptors; format: cell-based; parameters: host or cells: CHO cells; details: CHO overexpressing CB2, 100 nM, 10 min
T2 sequence (P34972 whole entry): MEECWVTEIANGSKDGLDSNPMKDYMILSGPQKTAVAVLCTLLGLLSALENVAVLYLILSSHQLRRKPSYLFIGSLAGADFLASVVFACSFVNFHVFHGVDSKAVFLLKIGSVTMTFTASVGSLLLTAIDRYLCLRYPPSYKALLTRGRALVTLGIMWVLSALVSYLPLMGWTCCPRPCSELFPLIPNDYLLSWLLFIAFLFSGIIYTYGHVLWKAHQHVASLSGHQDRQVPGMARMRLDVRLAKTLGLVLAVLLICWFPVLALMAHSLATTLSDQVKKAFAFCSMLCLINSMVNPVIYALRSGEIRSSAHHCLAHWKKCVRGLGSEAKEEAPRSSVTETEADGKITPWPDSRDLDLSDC

[2] = tested on: human hepatic myofibroblasts; test: Cell viability (MTS assay) / cytotoxicity of serum-deprived hepatic myofibroblasts; format: cell-based; details: for IC50: 16 hours, MTS assay, read-out: half maximal decrease in cell viability
Protocol: Cell viability. […] CellTiter 96 AQueous One Solution reagent was added to each well and absorbance was recorded at 490 nm.

[3] = tested on: human hepatic myofibroblasts; test: cells; format: cell-based; details: for effect on DNA synthesis / growth / IC50 / maximal reduction of PDGF-BB-stimulated DNA synthesis: 20 ng/ml PDGF-BB; for IC50: 30 hrs, read-out: half maximal inhibition (IC50) of DNA synthesis; for maximal reduction of PDGF-BB-stimulated DNA synthesis: at 500 nM; for effect on the antiproliferative effect of THC: pretreatment before THC + PDGF-BB
COX-2 = COX-2 protein induction (Western blot); details: 8 h
[4] = tested on: human hepatic myofibroblasts; test: DNA laddering and DAPI nuclear morphology; format: cell-based
Protocol: (A) Phase-contrast analysis (Magnification ×100). […] (C) Caspase-3-like activity.
Apoptosis assays. […] Nuclear morphology was assayed using DAPI staining.

CB2 receptors [5] = target: T2, CB2 receptors; test: [35S]GTPγS binding assay, membranes of human hepatic myofibroblasts
reactive oxygen species = test: Intracellular reactive oxygen species (DCFH-DA fluorescence); format: cell-based, human
caspase-3 = test: Caspase-3-like activity on cell lysates; details: for effect on caspase-3 activation elicited by THC: pretreatment before THC
COX = COX activity (PGE2 released after arachidonic acid); details: 1000 nM THC, 8 h
cAMP = cAMP levels in human hepatic myofibroblasts; format: cell-based; details: not shown
CB2 receptors [6] = target: T2, CB2 receptors; test: [35S]GTPγS binding assay, membranes of CHO cells overexpressing CB2 receptors

Molecule: CCCCC/C=C\C/C=C\C/C=C\C/C=C\CCCC(=O)NCCCl [ACEA, N-(2-Chloroethyl)-5Z,8Z,11Z,14Z-eicosatetraenamide]
- effect on forskolin-stimulated cAMP levels (CB1 receptors): reduced
- effect on forskolin-stimulated cAMP levels (CB2 receptors [1]): had no effect
- cytotoxic / apoptotic effect on hepatic myofibroblasts ([2]; serum-deprived cells): not cytotoxic
- effect on DNA synthesis / growth [3]: had no effect

Molecule: C=C(C)[C@@H]1CCC(C)=C[C@H]1c1c(O)cc(CCCCC)cc1O [cannabidiol]
- cytotoxic / apoptotic effect on hepatic myofibroblasts ([2]; serum-deprived cells): reproduced
- effect on DNA synthesis / growth [3]: reproduced

Molecule: Cc1c(C(=O)c2cccc3ccccc23)c2cccc3c2n1[C@H](CN1CCOCC1)CO3 [WIN-55.212-2, (R)-(+)-[2,3-Dihydro-5-methyl-3-(4-morpholinylmethyl)pyrrolo[1,2,3-de]-1,4-benzoxazin-6-yl]-1-naphthalenylmethanone mesylate]
- cytotoxic / apoptotic effect on hepatic myofibroblasts ([2]; serum-deprived cells): cytotoxic

Molecule: [2H]C([2H])([2H])CCCCc1cc(O)c2c(c1)OC(C)(C)C1CCC(C)=CC21 (stereo not drawn) [THC, 6a,7,8,10a-Tetrahydro-6,6,9-trimethyl-3-(pentyl-5,5,5-d3)-6H-dibenzo(b,d)pyran-1-ol]
- induction of COX-2 (COX-2): strong induction
- DNA laddering on agarose gel electrophoresis ([4]; 4 μM THC): dramatic DNA laddering
- nuclear morphology (DAPI staining) ([4]; 4 μM THC): condensed nuclei
- concentration giving maximal effect on [35S]GTPγS binding (CB2 receptors [5]): 100 nM
- IC50 ([2]; Homo sapiens, serum-deprived cells): 1500 nM
- concentration giving maximal decrease in cell survival ([2]; serum-deprived cells): 2 µM
- cytotoxic / apoptotic effect on hepatic myofibroblasts ([2]; serum-deprived cells): cytotoxic effects
- time to ROS production after exposure (reactive oxygen species): ≤ 20 min
- increase in production of intracellular reactive oxygen species (reactive oxygen species; 3 μM THC): 1.5 fold
- IC50 ([3]; Homo sapiens): 200 nM
- maximal reduction of PDGF-BB-stimulated DNA synthesis [3]: 50%
- time of peak caspase-3 activity (caspase-3): 4 to 6 h
- maximal increase of caspase-3 activity (caspase-3; 4 μM THC, 5 hr (FIG. 6C)): 6.3±2 fold
- maximal increase in caspase-3 activity (caspase-3; time course, peak after 4-6 hr): 6.7 fold
- COX activity (COX): stimulates COX activity
- cAMP levels in response to compound (cAMP): not raised
- concentration giving maximal activation of [35S]GTPγS binding (CB2 receptors [6]): 10 nM

Molecule: COC(=O)CC(NC(=O)C(C)NC(=O)C(NC(=O)OCc1ccccc1)C(C)C)C(=O)CF (stereo not drawn) [ZVAD-fmk, Z-val-Ala-Asp (OCH3)-Fluoromethyl ketone] (Cbz-Val-Ala-Asp(OMe)-CH2F; configuration not given here)
- effect on THC-induced DNA laddering ([4]; 50 μM ZVAD): blocked
- effect on caspase-3 activation elicited by THC (caspase-3): totally blunted

Molecule: Cc1c(C(=O)NN2CCCCC2)nn(-c2ccc(Cl)cc2Cl)c1-c1ccc(Cl)cc1 [SR 141716, N-pipéridino-5-(4-chlorophényl)-1-(2,4-dichlorophényl)-4-méthylpyrazole-3-carboxamide]
- effect on apoptosis elicited by HU-210 [2]: had no effect

Molecule: CCCn1c(C)c(C(=O)c2cccc3ccccc23)c2ccccc21 [JWH-015, (2-Methyl-1-propyl-1H-indol-3-yl)-1-naphthalenylmethanone]
- cytotoxic / apoptotic effect on hepatic myofibroblasts ([2]; serum-deprived cells): apoptotic
- IC50 ([2]; serum-deprived cells): 1000 nM
- cytotoxic / apoptotic effect on hepatic myofibroblasts ([2]; serum-deprived cells, listed as JW-015): reproduced
- effect on DNA synthesis / growth [3]: reproduced
- IC50 [3]: 150 nM
- maximal reduction of PDGF-BB-stimulated DNA synthesis [3]: 60%

Molecule: CCCCCCC(C)(C)c1ccc([C@@H]2C[C@H](O)CC[C@H]2CCCO)c(O)c1 [CP 55940, (−)-cis-3-[2-Hydroxy-4-(1,1-dimethylheptyl)phenyl]-trans-4-(3-hydroxypropyl)cyclohexanol]
- cytotoxic / apoptotic effect on hepatic myofibroblasts ([2]; serum-deprived cells): cytotoxic

Molecule: CCCCCCC(C)(C)c1cc(O)c2c(c1)OC(C)(C)[C@@H]1CC=C(CO)C[C@@H]21 [HU-210, (6aR)-trans-3-(1,1-Dimethylheptyl)-6a,7,10,10a-tetrahydro-1-hydroxy-6,6-dimethyl-6H-dibenzo[b,d]pyran-9-methanol]
- cytotoxic / apoptotic effect on hepatic myofibroblasts ([2]; serum-deprived cells): cytotoxic

Molecule: CC(C)Cc1ccc(C(C)C(=O)O)cc1 (stereo not drawn) [ibuprofen]
- effect on the antiproliferative effect of THC [3]: blunted
- effect on caspase-3 activation elicited by THC (caspase-3): did not affect

Molecule: CC(=O)N[C@@H](CS)C(=O)O [NAC, N-Acetyl Cysteine]
- effect on the antiproliferative effect of THC [3]: did not affect
- effect on caspase-3 activation elicited by THC (caspase-3): blunted

Molecule: [Cl-].[Mn+3].[O-]c1ccccc1C=NCCN=Cc1ccccc1[O-] [EUK 8]
- effect on the antiproliferative effect of THC [3]: did not affect
- effect on caspase-3 activation elicited by THC (caspase-3): blunted

Molecule: CS(=O)(=O)Nc1ccc([N+](=O)[O-])cc1OC1CCCCC1 [NS-398, N-(2-cyclohexyloxy-4-nitrophenyl)methane sulfonamide]
- effect on cytotoxic effect / cell death triggered by THC ([2]; pretreatment before THC): did not affect
- effect on the antiproliferative effect of THC [3]: reduced
- effect on the antiproliferative effect of THC ([3]; listed as NS 398): blunted
- effect on caspase-3 activation elicited by THC (caspase-3): did not affect

Molecule: N-[1S)-endo-1,3,3,-trimethyl bicyclo[2.2.1]heptan-2-yl]-5-(choloro-3-methylphenyl)-1-(4-methyl-benzyl)-pyrazole-3-carboxamide [SR 144528]
- effect on apoptosis elicited by HU-210 [2]: prevented
- effect of compound alone on cell viability ([2]; without THC): had no effect
- effect on the antiproliferative effect of THC [3]: strongly reduced
- effect on caspase-3 activation elicited by THC (caspase-3): no activation of caspase-3
- effect of compound alone on caspase-3-like activity (caspase-3; without THC): had no effect

Molecule: CCCCC/C=C\C/C=C\C/C=C\C/C=C\CCCC(=O)NCCO [anandamide, N-(2-Hydroxyethyl)-5Z,8Z,11Z,14Z-eicosatetraenamide]
- cytotoxic / apoptotic effect on hepatic myofibroblasts ([2]; serum-deprived cells): cytotoxic
